Data set [1] has as its system LN229 (human glioblastoma). Kind of data set: Proliferation assay (MTT), LN229 cells. It is filed as cell-based. As to conditions: LN-229, 72 h, 10% FBS. Here is the method:
(§1) Cells were maintained in monolayer culture with the corresponding media, supplemented with 5% fetal bovine serum (FBS) previously inactivated with heat, 2 mM glutamine and […] gentamicine.
(§2) The cells were treated for 72 hours in the presence of FBS 10% with different doses of the compounds in 96 wells at a 2500 cell/well density. The cell growth was estimated by MTT test, for which to the cell monolayers was added MTT, incubated and resuspended in DMSO. Finally, the number of cells was estimated by measuring the absorbance values at 570 nm.
(§3) Compound (65) as a representative example of Rac1 inhibitor compounds according to the present invention was tested in cell proliferation assays performed with following cancer cell lines F3II (murine mammary carcinoma), 3LL (murine lung carcinoma), LN229 (human glioblastoma), MCF7 (human mammary carcinoma), H125 (human lung carcinoma), PC3 (human prostate adenocarcinoma) and MDA-MB-231 (human mammary carcinoma).
The cells were trated for 72 hours in the presence of FBS 10% with different doses of the compounds in 96 wells at a 2500 cell/well density. The cell growth was estimated by MTT test, for which to the cell monolayers was added MTT, incubated and resuspended in DMSO. Finally, the number of cells was estimated by measuring the absorbance values at 570 nm.

Data set [2] concerns F3II (murine mammary carcinoma). Put plainly: Proliferation assay (MTT), F3II cells. It is filed as cell-based. As to conditions: Mus musculus, 72 h, 10% FBS. How it is done:
as §1, §2, §3

In data set [3] the test system is MDA-MB-231 (human mammary carcinoma). Put plainly: Proliferation assay (MTT), MDA-MB-231 cells. It is filed as cell-based. As to conditions: 72 h, 10% FBS. Here is the method: as §1, §2, §3
The next data set addresses T1, Rac1 (Homo sapiens, UniProt P63000).
T1 construct: endogenous in cells; host or cells: LN229 (human glioblastoma)
Kind of data set: Pull-Down assay of intracellular active Rac levels (Rac-GTP) in LN229 cells. It is filed as cell-based. To be noted: 10 μM, EGF 100 ng/ml, FIG. 3. Here is the method: This assay consists in the determination of inhibition power of the compounds of the invention over the intracellular active Rac1 levels (Rac-GTP). For determining the levels of Rac-GTP, the “Pull-Down” assay was used, which is based in the conformation bond of Rac-GTP to the p21 domain of PAK1 protein, which is the direct effector of Rac-GTP (Wanf H. et al.; J. Biol. Che. 2002, 277: 4541-4550).
LN229 cells (human glioblastoma) were seeded in 6-well cell culture plaques and were kept in absence of FBS for 48 hours (starvation). Afterwards, they were treated with compounds (25) and (65) and they were stimulated for 15 minutes with EGF (100 ng/ml), washed with phosphate buffered saline (PBS) at low temperature and lysated in a buffer containing 8 μg of the fusion protein GST-PBD, […] Tris-HCl, pH 7.5, […] DTT, 5 mM MgCl2, 150 mM NaCl, 0.5% NP-40, 5 mM β-glicerophosphate and protease inhibitors (5 μg/ml 4-(2-aminoethyl)bencenesulfonyl fluoride, 5 μg (ml leupeptin, 5 μg/ml aprotinin and 1 μg/ml pepstatin A). The lysates were centrifuged at 14,000×g (4° C., 10 min) and then incubated with Glutation-Agarose Beads (GAB, Amersham Pharmacia) previously fitted with GST-Pak at 4° C. for 1 hour. After washing, the GABs were boiled for 5 minutes in loading buffer. […] The total Rac levels were analyzed in a similar way from aliquots taken from the cell lysate.

In data set [4] the test system is F3II mammary carcinoma cells. Kind of data set: Antimetastatic effect, metastatic lung colonization by F3II cells in mice. It is filed as in vivo. As to conditions: 25 mg/kg/day i.p., days 0 to 21, F3II cells i.v., BALB/c mice, FIG. 9. Here is the method:
Specific pathogen-free female BALB/c inbred mice from UNLP (Buenos Aires, Argentina), with an age of 8-10 weeks and a average weight of 20 g, were used. They were housed in plastic cages under standard conditions and had access to rodent chow and water ad libitum. On the designated day 0 of the experiment, F3II mammary carcinoma cells were injected into the lateral tail vein of unanesthetized mice at a concentration of 2×10^5 viable cells/0.3 ml DMEM/mice. At day 21, animals were sacrificed by cervical dislocation and necropsied. To investigate the presence of lung metastasis, lungs were removed, fixed in Bouin's solution and the number of surface nodules was determined under a dissecting microscope.
(§4) To study the effect of compound (25) on metastatic lung colonization, mice were injected i.p at daily doses of 25 mg/kg body weight from days 0 to 21.

Data set [5] can be described thus: Tolerability and animal weight in mice. It is filed as in vivo. To be noted: adult female BALB/c mice, 25 mg/kg/day i.p. How it is done: as §4
Data set [6] deals with MCF7 (human mammary carcinoma). Put plainly: Proliferation assay (MTT), MCF7 cells. It is filed as cell-based. As to conditions: 72 h, 10% FBS, average of three experiments. Here is the method: as §1, §2, §3
Data set [7] has as its system 3LL (murine lung carcinoma). Put plainly: Proliferation assay (MTT), 3LL cells. It is filed as cell-based. To be noted: Mus musculus, 72 h, 10% FBS, average of three experiments. How it is done: as §1, §2, §3
The test system of data set [8] is H125 (human lung carcinoma). Put plainly: Proliferation assay (MTT), H125 cells. It is filed as cell-based. To be noted: NCI-H125, 72 h, 10% FBS, average of three experiments. How it is done: as §1, §2, §3
Data set [9] has as its system PC3 (human prostate adenocarcinoma). Put plainly: Proliferation assay (MTT), PC3 cells. To be noted: PC-3, 72 h, 10% FBS, average of three experiments. It is filed as cell-based. Here is the method:
as §1, §2, §3

The target in another data set is T2, Rac-Tiam complex (Homo sapiens, UniProt P63000).
T2 construct: GST
Put plainly: Precipitation affinity of Tiam with recombinant GST-Rac (Western Blot anti Tiam1). It is filed as binding. As to conditions: Western Blot anti Tiam1 vs. control, FIG. 2. Here is the method: Compounds (65) and (25) were tested in order to determine its inhibition power over the interaction Rac-Tiam. Thus, the precipitation affinity of Tiam with the recombinant protein GST-Rac was evaluated in presence of compound (65).

For data set [10], the system named is LN229 human glioblastoma cells. Kind of data set: Polymerization of actin filaments by immunofluorescence in LN229 cells. It is filed as cell-based. As to conditions: LN229 starved 24 h, treated 1 hour, EGF stimulated, FIG. 5. Here is the method:
The effect of compound (65) over the polymerization of actin filaments was evaluated by immunofluorescence with conjugated faloidine with the fluorochrome AlexaFluor (Invitrogen). LN229 human glioblastoma cells were starvated for 24 hours, treated with compound (65) for 1 hour, and stimulated with EGF. […] An accurate sign of cellular boundaries is observed in all cells due to the cortical actin marking.

Data set [11] relates to LN229 human glioblastoma cells. Kind of data set: Trans-well migration assay. It is filed as cell-based. As to conditions: 10 μM, 50 μM and 100 μM, 24 hours, FIG. 6. How it is done: Cell motility is a key process in the invasion and tumor metastasis processes and it is closely regulated by the Rho-GTPases family, particularly by Rac. This assay consists in the determination of the antimigration effect of compound (65) on LN229 human glioblastoma cells.
The cell migration in vitro was measured by the trans-well migration assay, wherein LN229 cells previously treated with different concentrations (10 μM, 50 μM and 100 μM) of compound (65) and serum deprived were placed on the upper layer of a cell permeable membrane of a trans-well plaque. Following an incubation perior of 24 hours, the cells migrated through the 8 μm pores of the membrane to the lower layer.

The subject of another data set is LN229 cells. Put plainly: Cell cycle effect by flow cytometry. It is filed as cell-based, human. How it is done:
The effect of compound (65) on the cell cycle was studied by flow citometry. It is known that Rac1 GTPase is related with transcription of molecules such as cyclin D1, which are required to progress from G1 phase to S phase. Inhibition of Rac1 induces cell arrest in G0-G1 phase.
LN229 cells synchronized in G0-G1 phase and stimulated for 24 hours with FBS were treated with compound (65).

Where [12] appears, read: read-out: IC50 (μM) tested in LN229 cells (Table 2).

Read-outs that look alike come from different tables or passages of the source.

For orientation: IC50 means the concentration at which inhibition is half-maximal. As usually defined, the melting point is the temperature of the solid-liquid transition.

Consider `N=C(Nc1cccc([N+](=O)[O-])c1)Nc1ccccc1C(F)(F)F` [(41), N-(3-nitrophenyl)-N′-[2-(trifluoromethyl)phenyl]guanidine], for which the IC50 in data set [1] (setting [12]) was 88 µM.

In turn, `Cc1ccccc1NC(=N)Nc1ccccc1C(F)(F)F` [(64), N-(2-methylphenyl)-N′-[2-(trifluoromethyl)phenyl]guanidine] had a melting point of 129 °C. For the same molecule, the IC50 in [1] (setting [12]) turned out to be 175 µM.

For `Cc1cc(C)cc(NC(=N)Nc2ccccc2C(F)(F)F)c1` [Compound (25), N-(3,5-dimethylphenyl)-N′-[2-(trifluoromethyl)phenyl]guanidine], the IC50 in [2] (read-out: IC50 values, F3II (Table 3)) is 36 µM; in data set [1] (setting [12]), 73 µM; in data set [3] (read-out: IC50 values, MDA-MB-231 (Table 3)) it was 40 µM. Also, at Rac1, the “Effect over the intracellular active Rac levels (Rac-GTP)” value was “inhibitory effect”. Moreover, in data set [4], the “Reduction of the formation of metastatic lung colonies” value is given as “about 35%”. In addition, the “Changes in animal weight compared to the control group” value in data set [5] is recorded as “no significant changes in animal weight”. For the same molecule, the Tolerability entry in data set [5] is “well tolerated”.

The molecule `N=C(Nc1ccccc1)Nc1ccccc1C(F)(F)F` [(27), N-phenyl-N′-[2-(trifluoromethyl)phenyl]guanidine] returned a melting point of 108 to 109 °C. The IC50 in [1] (setting [12]) came to 211 µM.

Take `Cc1cc(C)nc(NC(=N)Nc2ccccc2C(F)(F)F)n1` [Compound (65), N-[4,6-bis(methyl)pyrimidin-2-yl]-N′-[2-(trifluoromethyl)phenyl]guanidine]: the IC50 in [2] (average of three experiments, read-out: IC50 values, F3II) came out at 61 µM; in data set [6] it was 44 µM; in data set [7], 68 µM; in data set [8], 127 µM; in data set [1] (average of three experiments, read-out: IC50 values, LN229) it was 73 µM; in data set [9], 138 µM. For the same molecule, the IC50 in [3] (average of three experiments, read-out: IC50 values, MDA-MB-231) was 48 µM. For the same molecule, the “Effect over Rac-Tiam complex (Rac interaction with the activator)” value on Rac-Tiam complex is recorded as “decrease of Rac interaction with the activator”. In addition, the “Effect over the intracellular active Rac levels (Rac-GTP)” value at Rac1 is reported as “inhibitory effect”. For the same molecule, the “Intracellular fibrillar actin levels” value in data set [10] was “decreasing of intracellular fibrilar actin levels”. The Cell migration result in data set [11] was “significantly decreased the cell migration in a dose dependent manner”. The “Cell population in G0-G1 phase” value in the data set on LN229 cells (50 μM, LN229 synchronized in G0-G1, stimulated 24 hours with FBS, controls 25%) stood at 60%. Moreover, in the data set on LN229 cells (LN229 cells, FIG. 7), the Cell cycle arrest entry is reported as “arrests tumoral cells in G0-G1 phase in a dose dependent manner”.

These data come from patent US9745257B2, “Phenyl-guanidine derivatives” (Universidad Nacional de Quilmes, priority 2011, dated 2017).
